Assay results as given in patent publication US9587266B2, “Mutant luciferases” (University of Massachusetts, priority 2011, dated 2017).
“And” between values parts separate entries of the source, which are not always exact repeats. Equal entries are not always repeated.

Key:
WT luciferase [1] = molecular target: T1, WT luciferase (Photinus pyralis, UniProt P08659); assay type: biochemical; conditions: WT luciferase treated with D-luciferin; inhibitor 2 or 20 μM, enzyme titration
T1 construct: The full firefly (Photinus pyralis) luciferase gene was PCR amplified from pGL3 (Promega); GST (N, cleaved yes); made in house; host or cells: E. coli JM109
T1 sequence (P08659 whole entry): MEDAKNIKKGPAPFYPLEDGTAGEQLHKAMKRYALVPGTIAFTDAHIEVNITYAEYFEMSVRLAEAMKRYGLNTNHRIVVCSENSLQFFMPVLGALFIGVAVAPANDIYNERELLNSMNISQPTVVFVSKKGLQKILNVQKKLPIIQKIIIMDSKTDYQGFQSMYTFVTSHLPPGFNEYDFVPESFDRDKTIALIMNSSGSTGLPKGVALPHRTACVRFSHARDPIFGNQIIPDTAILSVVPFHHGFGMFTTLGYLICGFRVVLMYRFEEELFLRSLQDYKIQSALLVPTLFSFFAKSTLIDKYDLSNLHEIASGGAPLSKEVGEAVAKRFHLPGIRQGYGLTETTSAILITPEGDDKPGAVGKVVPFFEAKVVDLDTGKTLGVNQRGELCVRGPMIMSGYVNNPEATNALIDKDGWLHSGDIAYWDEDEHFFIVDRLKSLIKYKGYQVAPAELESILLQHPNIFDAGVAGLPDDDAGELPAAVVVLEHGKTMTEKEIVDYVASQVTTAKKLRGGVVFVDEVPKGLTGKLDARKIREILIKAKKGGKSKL
Protocol: Luminescence assays in 96-well plates were initiated by adding 30 μL 2× luciferin substrate in 20 mM Tris pH 7.4, 0.1 mM EDTA, 8 mM MgSO4, 4 mM ATP, and 1 mM TCEP to 30 μL of 20 nM purified luciferase in 20 mM Tris pH 7.4, 0.1 mM EDTA, 1 mM TCEP and 0.4 mg/mL BSA. Substrate titration assays were performed 3 minutes post-substrate addition in a Turner Veritas luminometer with final substrate concentrations ranging from 0.122-250 μM in the presence of 0 μM, 1 μM, or 10 μM of the luciferase inhibitor 2-(4-methoxyphenyl)benzothiazole. Enzyme titration assays were performed under the same conditions, using 0 μM, 2 or 20 μM of the luciferase inhibitor 2-(4-methoxyphenyl)benzothiazole, a constant final luciferin substrate concentration of 20 μM, and serial 2-fold dilutions of luciferase concentration from 20 nM down to 0.01 nM.

R218K luciferase [2] = molecular target: T2, R218K luciferase (Photinus pyralis, UniProt P08659, R218K); assay: Small molecule luciferase inhibition assay; assay type: biochemical; conditions: inhibitor 2 or 20 μM, enzyme titration
T2 construct: The full firefly (Photinus pyralis) luciferase gene was PCR amplified from pGL3 (Promega); GST (N, cleaved yes); made in house; host or cells: E. coli JM109
T2 sequence (P08659 whole entry R218K): as the sequence (P08659 whole entry) above, with R218K counted along it
Protocol: Enzyme titration assays were performed under the same conditions, using 0 μM, 2 or 20 μM of the luciferase inhibitor 2-(4-methoxyphenyl)benzothiazole, a constant final luciferin substrate concentration of 20 μM, and serial 2-fold dilutions of luciferase concentration from 20 nM down to 0.01 nM.

L286M mutant luciferase = molecular target: T3, L286M mutant luciferase (Photinus pyralis, UniProt P08659, L286M); assay: Titration assay with purified protein; assay type: biochemical
T3 construct: The full firefly (Photinus pyralis) luciferase gene was PCR amplified from pGL3 (Promega); GST (N, cleaved yes); made in house; host or cells: E. coli JM109
T3 sequence (P08659 whole entry L286M): as the sequence (P08659 whole entry) above, with L286M counted along it
Protocol: (§1) The PCR product was cloned into the BamH1 and NotI sites of pGEX6P-1 for bacterial expression. Mutant proteins were created using the Quickchange site-directed mutagenesis kit (Stratagene). Saturating mutagenesis was performed using the used the degenerate codon NNK at sites predicted to impact or alter substrate biding including F247, T251, L286, S347, R337, R218, Q338, Y340, A313, and I351 using the degenerate codon NNK.
(§2) Luminescence assays in 96-well plates were initiated by adding 30 μL 2× substrate in 20 mM Tris pH 7.6, 0.1 mM EDTA, 8 mM MgSO4, 4 mM ATP, and 1 mM TCEP to 30 μL of 20 nM purified luciferase in 20 mM Tris pH 7.6, 0.1 mM EDTA, 1 mM TCEP and 0.4 mg/mL BSA.

T251S mutant luciferase = molecular target: T4, T251S mutant luciferase (Photinus pyralis, UniProt P08659, T251S); assay: Titration assay with purified protein; assay type: biochemical
T4 construct: The full firefly (Photinus pyralis) luciferase gene was PCR amplified from pGL3 (Promega); GST (N, cleaved yes); made in house; host or cells: E. coli JM109
T4 sequence (P08659 whole entry T251S): as the sequence (P08659 whole entry) above, with T251S counted along it
Protocol: as §1, §2

R218K mutant luciferase = molecular target: T5, R218K mutant luciferase (Photinus pyralis, UniProt P08659, R218K); assay type: biochemical; conditions: R218K luciferase, purified protein
T5 construct: The full firefly (Photinus pyralis) luciferase gene was PCR amplified from pGL3 (Promega); GST (N, cleaved yes); made in house; host or cells: E. coli JM109
T5 sequence (P08659 whole entry R218K): as the sequence (P08659 whole entry) above, with R218K counted along it
Protocol: as §1, §2

S347A mutant luciferase = molecular target: T6, S347A mutant luciferase (Photinus pyralis, UniProt P08659, S347A); assay type: biochemical; conditions: for Apparent Vmax: purified protein
T6 construct: The full firefly (Photinus pyralis) luciferase gene was PCR amplified from pGL3 (Promega); GST (N, cleaved yes); made in house; host or cells: E. coli JM109
T6 sequence (P08659 whole entry S347A): as the sequence (P08659 whole entry) above, with S347A counted along it
Protocol: as §1, §2

F247L mutant luciferase = F247L mutant luciferase (Photinus pyralis, UniProt P08659, F247L); conditions: F247L mutant relative to wild-type luciferase
Chain of F247L mutant luciferase (P08659 whole entry F247L): as the sequence (P08659 whole entry) above, with F247L counted along it
Protocol: as §1, with “NNK. The point mutants S347A, L286A, A348G, E311A, I351A, A313G, R337A, H245A and L342A were made independently.” for “NNK.”
as §2, with “BSA. Titration assays were performed 3 minutes post-substrate addition in a Turner Veritas luminometer with final substrate concentrations ranging from 0.122-250 μM or 0.244-500 μM.” for “BSA.”

WT luciferase [3] = molecular target: T1, WT luciferase; assay: Titration assay with purified protein; assay type: biochemical
Protocol: as §1, with “NNK. The point mutants S347A, L286A, A348G, E311A, I351A, A313G, R337A, H245A and L342A were made independently.” for “NNK.”
as §2, with “BSA. Titration assays were performed 3 minutes post-substrate addition in a Turner Veritas luminometer with final substrate concentrations ranging from 0.122-250 μM or 0.244-500 μM.” for “BSA.”

R218K + L342A luciferase = molecular target: T7, R218K + L342A luciferase (Photinus pyralis, UniProt P08659, L342A/R218K); assay type: biochemical
T7 construct: The full firefly (Photinus pyralis) luciferase gene was PCR amplified from pGL3 (Promega); GST (N, cleaved yes); made in house; host or cells: E. coli JM109
T7 sequence (P08659 whole entry R218K/L342A): as the sequence (P08659 whole entry) above, with R218K, L342A counted along it
Protocol: (§3) Purified mutant luciferases were used in bioluminescence emission and burst kinetics scans. Each purified protein in 20 mM Tris pH 7.6, 0.1 mM EDTA, 1 mM TCEP and 0.4 mg/mL BSA was added to 2× substrate in 20 mM Tris pH 7.6, 0.1 mM EDTA, 8 mM MgSO4, 4 mM ATP, and 1 mM TCEP in a cuvette.
(§4) Luciferase was rapidly injected into a cuvette containing substrate, and the emission from 400-800 nm was recorded in a SPEX FluoroMax-3 fluorimeter with closed excitation slits.

WT luciferase [4] = molecular target: T1, WT luciferase; assay type: biochemical; conditions: for Wavelength at Max. Emission: Table 2
Protocol: as §3, §4

F247L L286M luciferase = molecular target: T8, F247L L286M luciferase (Photinus pyralis, UniProt P08659, F247L/L286M); assay: Bioluminescence emission scan; assay type: biochemical
T8 construct: The full firefly (Photinus pyralis) luciferase gene was PCR amplified from pGL3 (Promega); GST (N, cleaved yes); made in house; host or cells: E. coli JM109
T8 sequence (P08659 whole entry F247L/L286M): as the sequence (P08659 whole entry) above, with F247L, L286M counted along it
Protocol: (§5) Purified mutant luciferases were used in bioluminescence emission and burst kinetics scans.
as §4

L286M + S347A luciferase = molecular target: T9, L286M + S347A luciferase (Photinus pyralis, UniProt P08659, L286M/S347A); assay: Bioluminescence emission scan; assay type: biochemical
T9 construct: The full firefly (Photinus pyralis) luciferase gene was PCR amplified from pGL3 (Promega); GST (N, cleaved yes); made in house; host or cells: E. coli JM109
T9 sequence (P08659 whole entry L286M/S347A): as the sequence (P08659 whole entry) above, with L286M, S347A counted along it
Protocol: as §5, §4

L342A luciferase = molecular target: T10, L342A luciferase (Photinus pyralis, UniProt P08659, L342A); assay: Bioluminescence emission scan; assay type: biochemical
T10 construct: The full firefly (Photinus pyralis) luciferase gene was PCR amplified from pGL3 (Promega); GST (N, cleaved yes); made in house; host or cells: E. coli JM109
T10 sequence (P08659 whole entry L342A): as the sequence (P08659 whole entry) above, with L342A counted along it
Protocol: as §5, §4

R218K luciferase [5] = molecular target: T2, R218K luciferase; assay: Bioluminescence emission scan; assay type: biochemical
Protocol: as §5, §4

S347A luciferase = molecular target: T11, S347A luciferase (Photinus pyralis, UniProt P08659, S347A); assay: Bioluminescence emission scan; assay type: biochemical
T11 construct: The full firefly (Photinus pyralis) luciferase gene was PCR amplified from pGL3 (Promega); GST (N, cleaved yes); made in house; host or cells: E. coli JM109
T11 sequence (P08659 whole entry S347A): as the sequence (P08659 whole entry) above, with S347A counted along it
Protocol: as §5, §4

S347T luciferase = molecular target: T12, S347T luciferase (Photinus pyralis, UniProt P08659, S347T); assay: Bioluminescence emission scan; assay type: biochemical
T12 construct: The full firefly (Photinus pyralis) luciferase gene was PCR amplified from pGL3 (Promega); GST (N, cleaved yes); made in house; host or cells: E. coli JM109
T12 sequence (P08659 whole entry S347T): as the sequence (P08659 whole entry) above, with S347T counted along it
Protocol: as §5, §4

T251S L286M luciferase = molecular target: T13, T251S L286M luciferase (Photinus pyralis, UniProt P08659, L286M/T251S); assay: Bioluminescence emission scan; assay type: biochemical
T13 construct: The full firefly (Photinus pyralis) luciferase gene was PCR amplified from pGL3 (Promega); GST (N, cleaved yes); made in house; host or cells: E. coli JM109
T13 sequence (P08659 whole entry T251S/L286M): as the sequence (P08659 whole entry) above, with T251S, L286M counted along it
Protocol: as §5, §4

F247A luciferase = molecular target: T14, F247A luciferase (Photinus pyralis, UniProt P08659, F247A); assay: Bioluminescence emission scan; assay type: biochemical
T14 construct: The full firefly (Photinus pyralis) luciferase gene was PCR amplified from pGL3 (Promega); GST (N, cleaved yes); made in house; host or cells: E. coli JM109
T14 sequence (P08659 whole entry F247A): as the sequence (P08659 whole entry) above, with F247A counted along it
Protocol: as §5, §4

F247R luciferase = molecular target: T15, F247R luciferase (Photinus pyralis, UniProt P08659, F247R); assay: Bioluminescence emission scan; assay type: biochemical
T15 construct: The full firefly (Photinus pyralis) luciferase gene was PCR amplified from pGL3 (Promega); GST (N, cleaved yes); made in house; host or cells: E. coli JM109
T15 sequence (P08659 whole entry F247R): as the sequence (P08659 whole entry) above, with F247R counted along it
Protocol: as §5, §4

F247S luciferase = molecular target: T16, F247S luciferase (Photinus pyralis, UniProt P08659, F247S); assay: Bioluminescence emission scan; assay type: biochemical
T16 construct: The full firefly (Photinus pyralis) luciferase gene was PCR amplified from pGL3 (Promega); GST (N, cleaved yes); made in house; host or cells: E. coli JM109
T16 sequence (P08659 whole entry F247S): as the sequence (P08659 whole entry) above, with F247S counted along it
Protocol: as §5, §4

F247V luciferase = molecular target: T17, F247V luciferase (Photinus pyralis, UniProt P08659, F247V); assay: Bioluminescence emission scan; assay type: biochemical
T17 construct: The full firefly (Photinus pyralis) luciferase gene was PCR amplified from pGL3 (Promega); GST (N, cleaved yes); made in house; host or cells: E. coli JM109
T17 sequence (P08659 whole entry F247V): as the sequence (P08659 whole entry) above, with F247V counted along it
Protocol: as §5, §4

L286M luciferase = molecular target: T18, L286M luciferase (Photinus pyralis, UniProt P08659, L286M); assay: Bioluminescence emission scan; assay type: biochemical
T18 construct: The full firefly (Photinus pyralis) luciferase gene was PCR amplified from pGL3 (Promega); GST (N, cleaved yes); made in house; host or cells: E. coli JM109
T18 sequence (P08659 whole entry L286M): as the sequence (P08659 whole entry) above, with L286M counted along it
Protocol: as §5, §4

L286Y luciferase = molecular target: T19, L286Y luciferase (Photinus pyralis, UniProt P08659, L286Y); assay: Bioluminescence emission scan; assay type: biochemical
T19 construct: The full firefly (Photinus pyralis) luciferase gene was PCR amplified from pGL3 (Promega); GST (N, cleaved yes); made in house; host or cells: E. coli JM109
T19 sequence (P08659 whole entry L286Y): as the sequence (P08659 whole entry) above, with L286Y counted along it
Protocol: as §5, §4

T251N luciferase = molecular target: T20, T251N luciferase (Photinus pyralis, UniProt P08659, T251N); assay: Bioluminescence emission scan; assay type: biochemical
T20 construct: The full firefly (Photinus pyralis) luciferase gene was PCR amplified from pGL3 (Promega); GST (N, cleaved yes); made in house; host or cells: E. coli JM109
T20 sequence (P08659 whole entry T251N): as the sequence (P08659 whole entry) above, with T251N counted along it
Protocol: as §5, §4

T251Q luciferase = molecular target: T21, T251Q luciferase (Photinus pyralis, UniProt P08659, T251Q); assay: Bioluminescence emission scan; assay type: biochemical
T21 construct: The full firefly (Photinus pyralis) luciferase gene was PCR amplified from pGL3 (Promega); GST (N, cleaved yes); made in house; host or cells: E. coli JM109
T21 sequence (P08659 whole entry T251Q): as the sequence (P08659 whole entry) above, with T251Q counted along it
Protocol: as §5, §4

T251S luciferase = molecular target: T22, T251S luciferase (Photinus pyralis, UniProt P08659, T251S); assay: Bioluminescence emission scan; assay type: biochemical
T22 construct: The full firefly (Photinus pyralis) luciferase gene was PCR amplified from pGL3 (Promega); GST (N, cleaved yes); made in house; host or cells: E. coli JM109
T22 sequence (P08659 whole entry T251S): as the sequence (P08659 whole entry) above, with T251S counted along it
Protocol: as §5, §4

[6] = read-out: Apparent Km, 3 minutes post-substrate addition

Compound: COc1ccc(-c2nc3ccccc3s2)cc1 [2-(4-methoxyphenyl)-benzothiazole, 2-(4-methoxyphenyl)benzothiazole]
- effect of luciferase inhibitor on light output (WT luciferase [1]): strongly inhibited
- effect of luciferase inhibitor on light output (R218K luciferase [2]; R218K luciferase treated with D-luciferin): strongly inhibited
- effect of luciferase inhibitor on light output (R218K luciferase [2]; R218K luciferase with CycLuc2 as substrate): largely unaffected

Compound: Nc1ccc2nc(C3=N[C@@H](C(=O)O)CS3)sc2c1 [6′-NH2LH2, 6′-aminoluciferin]
- Apparent Vmax (L286M mutant luciferase): 62 ± 0.7 ×10^−5 cps
- Apparent Vmax (T251S mutant luciferase): 51 ± 0.3 ×10^−5 cps
- Apparent Vmax (R218K mutant luciferase): 157 ± 3.7 ×10^−5 cps
- Apparent Vmax (S347A mutant luciferase): 91 ± 0.4 ×10^−5 cps
- improvement of maximal sustained light emission (F247L mutant luciferase): 4.9 fold and > 5 fold
- Apparent Vmax (WT luciferase [3]): 35 ± 0.25 ×10^−5 cps
- Maximum Emission Wavelength of Selected Substrate (R218K + L342A luciferase): 594 nm
- Wavelength at Max. Emission (WT luciferase [4]): 595 nm
- Maximum Emission Wavelength of Selected Substrate (WT luciferase [4]; Table 3): 594 nm
- Wavelength at Max. Emission (F247L L286M luciferase): 592 nm
- Maximum Emission Wavelength of Selected Substrate (L286M + S347A luciferase): 589 nm
- Maximum Emission Wavelength of Selected Substrate (L342A luciferase): 591 nm
- Maximum Emission Wavelength of Selected Substrate (R218K luciferase [5]): 599 nm
- Wavelength at Max. Emission (S347A luciferase): 591 nm
- Wavelength at Max. Emission (S347T luciferase): 583 nm
- Wavelength at Max. Emission (T251S L286M luciferase): 602 nm

Compound: O=C(O)[C@H]1CSC(c2nc3ccc(O)cc3s2)=N1 [D-Luciferin, D-luciferin]
- Apparent Vmax (L286M mutant luciferase): 1060 ± 26 ×10^−5 cps
- Km (L286M mutant luciferase; [6]): 19.1 ± 1.3 µM
- Apparent Vmax (T251S mutant luciferase): 1054 ± 19 ×10^−5 cps
- Km (T251S mutant luciferase; [6]): 114 ± 3.4 µM
- Apparent Vmax (R218K mutant luciferase): 1541 ± 21 ×10^−5 cps
- Km (R218K mutant luciferase; [6]): 106 ± 2.6 µM
- Apparent Vmax (S347A mutant luciferase): 142.8 ± 3 ×10^−5 cps
- Km (S347A mutant luciferase; read-out: Apparent Km, purified protein, 3 minutes post-substrate addition): 76.6 ± 3.1 µM
- Apparent Vmax (WT luciferase [3]): 1079 ± 13 ×10^−5 cps
- Wavelength at Max. Emission (WT luciferase [4]): 554 nm
- Wavelength at Max. Emission (F247A luciferase): 591 nm
- Wavelength at Max. Emission (F247R luciferase): 605 nm
- Wavelength at Max. Emission (F247S luciferase): 588 nm
- Wavelength at Max. Emission (F247V luciferase): 600 nm
- Wavelength at Max. Emission (L286M luciferase): 564 nm
- Wavelength at Max. Emission (L286Y luciferase): 606 nm
- Wavelength at Max. Emission (S347A luciferase): 573 nm
- Wavelength at Max. Emission (S347T luciferase): 561 nm
- Wavelength at Max. Emission (T251N luciferase): 555 nm
- Wavelength at Max. Emission (T251Q luciferase): 626 nm
- Wavelength at Max. Emission (T251S luciferase): 553 nm
